Tests used:
TGF-β R1 ALK5 = target: T1, TGF-β R1 ALK5 (Homo sapiens, UniProt P36897); assay: In vitro inhibition of ALK5 (LanthaScreen activity assay, TR-FRET); assay type: biochemical
T1 construct: purchased Invitrogen PV5837
T1 sequence (P36897 34-503): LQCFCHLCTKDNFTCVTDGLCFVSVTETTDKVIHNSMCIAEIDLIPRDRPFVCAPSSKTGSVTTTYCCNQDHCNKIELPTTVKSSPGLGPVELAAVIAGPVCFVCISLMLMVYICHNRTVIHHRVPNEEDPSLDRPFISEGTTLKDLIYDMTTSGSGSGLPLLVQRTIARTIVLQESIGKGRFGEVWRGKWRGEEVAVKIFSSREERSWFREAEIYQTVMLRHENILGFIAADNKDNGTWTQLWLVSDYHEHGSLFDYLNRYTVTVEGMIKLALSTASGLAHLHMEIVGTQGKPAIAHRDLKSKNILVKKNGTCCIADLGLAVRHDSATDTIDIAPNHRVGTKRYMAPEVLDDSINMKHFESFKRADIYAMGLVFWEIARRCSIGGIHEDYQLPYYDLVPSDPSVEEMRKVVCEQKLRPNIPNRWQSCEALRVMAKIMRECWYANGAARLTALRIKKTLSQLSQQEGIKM
Method: Test compounds were screened for TGF-β R1 ALK5 inhibition by use of a LanthaScreen™ activity assay (PV5837 Invitrogen, Invitrogen Corp. Madison, Wis.).
In brief, the assay procedure was as follows:
Solutions of test compounds were prepared in DMSO and diluted two-fold serially.
Assays were incubated for 90 minutes at room temperature and then quenched by the addition of 60 mM EDTA and 8 nM Terbium labeled anti-pSMAD3 Antibody (M4337 from Invitrogen) giving a final concentration of 15 mM EDTA and 2 nM Terbium labeled anti-pSMAD3 Antibody. Phosphorylated peptide product was quantified by measuring an increase in TR-FRET on a BMG LABTECH PHERA star plus. Response is defined as the ratio of Channel A/Channel B. The response of a blank (uninhibited) using vehicle alone is also determined. Enzyme activity was defined as the response of uninhibited enzyme activity minus the response of assays containing no enzyme. The percent inhibition of ALK5 at a given compound concentration is defined as: 100%×[1−(response compound/response blank)]
where response compound is defined as the enzyme activity in the presence of test compound and response blank is defined as the uninhibited enzyme activity. The pIC50 value (negative log of the molar concentration of the compound that produces 50% inhibition) of a test compound is calculated by non-linear least squares curve fitting of the equation: Percent Inhibition=100%/(1+(10−pIC50/10 log [I])).
Where inhibition was measured in multiple experiments the value in Table 1 is an average. N.T. means not tested.

cellular TGF-β R1 ALK5 = target: T2, cellular TGF-β R1 ALK5 (Homo sapiens, UniProt P36897); assay: Cellular inhibition of ALK5 (CellSensor SBE-bla HEK 293T beta-lactamase reporter); assay type: cell-based; settings: cellular inhibition of ALK5, SBE-bla HEK 293T cells, TGFb-1 stimulated 5 hours; average where measured in multiple experiments
T2 construct: host or cells: CellSensor SBE-bla HEK 293T
T2 sequence (P36897 34-503): T1 sequence (P36897 34-503)
Text: Test compounds were screened for cellular TGF-β R1 ALK5 inhibition by use of a CellSensor® SBE-bla HEK 293T (K1550, Invitrogen Corp. Madison, Wis.) cell line. The CellSensor® SBE-bla HEK 293T cell line contains a beta-lactamase reporter gene under control of the SBE response element stably integrated into HEK 293T cells. The SBE response element is a DNA region that binds activated SMADs which results from the binding of TGF-β to, and subsequent activation of ALK5.
The assay procedure was as follows:
CellSensor® SBE-bla HEK 293T cell line were plated at 12,000 cells/well in 40 ul DMEM plus 5 ug/ml blasticidin into 384-well, black-wall, clear-bottom assay plate and incubated overnight.
The following day 5 uL of 10×, 2.5-fold serially diluted test compounds in DMSO were added into cells to a final compound concentration of 1× and DMSO concentration of 0.5%. Assay was incubated for 1 hour at 37° C., 5% CO2, 5 uL of 100 ng/mL TGFb-1 was then added to activate ALK5 and incubated for 5 hours at 37° C., 5% CO2, 10 uL of detector, LiveBLAzer FRET B/G substrate (CCF4-AM, Invitrogen Corp. Madison, Wis.) was added to cells and incubated for 2 hours at RT. Assay was measured using Spectramax, a bottom-read fluorescence plate reader, at excitation setting of 405 nm and emission settings of 460 nm and 530 nm.
Response is defined as the ratio of background corrected 460 nm emission values/background corrected 530 nm emission values. Cellular activity was defined as percent inhibition of uninhibited ALK5 activity (wells treated with DMSO+TGF-β). The percent inhibition of cellular ALK5 at a given compound concentration is defined as: 100%×[1−(response compound+TGF-β/response DMSO+TGF-β)] where response compound+TGF-β is defined as the activity in the presence of test compound and response DMSO+TGF-β is defined as the uninhibited cellular ALK5 activity. The pIC50 value (negative log of the molar concentration of the compound that produces 50% inhibition) of a test compound is calculated by non-linear least squares curve fitting. pIC50 values, the negative of the log of the IC50, are calculated by non-linear curve fitting of the compound concentrations and percent of inhibition to the standard pIC50 equation.
Where inhibition was measured in multiple experiments the value in Table 2 is an average. N.T. means not tested.

SMILES | IC50 (TGF-β R1 ALK5) [nM] | IC50 (cellular TGF-β R1 ALK5) [nM]
Cc1cnc(-c2cc(Cl)ccc2F)nc1Nc1ccnc2cn[nH]c12 [Example 1, N-(2-(5-chloro-2-fluorophenyl)-5-methylpyrimidin-4-yl)-1H-pyrazolo[4,3-b]pyridin-7-amine] | 10 | 50.1
CNC(=O)n1ncc2nccc(Nc3nc(-c4cc(Cl)ccc4F)ncc3C)c21 [Example 2, 7-(2-(5-chloro-2-fluorophenyl)-5-methylpyrimidin-4-ylamino)-N-methyl-1H-pyrazolo[4,3-b]pyridine-1-carboxamide] | 6.31 | 79.4
Cc1ccc(F)c(-c2cc(Nc3ccnc4cnn(C(C)C)c34)c(C)cn2)n1 [Example 5, N-(3′-fluoro-5,6′-dimethyl-2,2′-bipyridin-4-yl)-1-isopropyl-1H-pyrazolo[4,3-b]pyridin-7-amine] | 39.8 | 200
Cc1cccc(-c2cc(Nc3ccnc4cn[nH]c34)c(C)cn2)n1 [Example 6, N-(5,6′-dimethyl-2,2′-bipyridin-4-yl)-1H-pyrazolo[4,3-b]pyridin-7-amine] | 5.01 | 25.1
Fc1ccc(Cl)cc1-c1cc(Nc2ccnc3cn[nH]c23)ccn1 [Example 17, N-(2-(5-chloro-2-fluorophenyl)pyridin-4-yl)-1H-pyrazolo[4,3-b]pyridin-7-amine] | 5.01 | 50.1
Fc1ccc(Cl)cc1-c1cc(Nc2ccnc3cnn(C4CCOCC4)c23)ccn1 [Example 21, N-(2-(5-chloro-2-fluorophenyl)pyridin-4-yl)-1-(tetrahydro-2H-pyran-4-yl)-1H-pyrazolo[4,3-b]pyridin-7-amine] | 100 | 794
CCNC(=O)n1ncc2nccc(Nc3ccnc(-c4cc(Cl)ccc4F)c3)c21 [Example 29, 7-(2-(5-chloro-2-fluorophenyl)pyridin-4-ylamino)-N-ethyl-1H-pyrazolo[4,3-b]pyridine-1-carboxamide] | 100 | 100
CNC(=O)Cn1ncc2nccc(Nc3ccnc(-c4cc(Cl)ccc4F)c3)c21 [Example 31, 2-(7-(2-(5-chloro-2-fluorophenyl)pyridin-4-ylamino)-1H-pyrazolo[4,3-b]pyridin-1-yl)-N-methylacetamide] | 200 | 200
CNC(=O)n1ncc2nccc(Nc3ccnc(-c4cc(Cl)ccc4F)c3)c21 [Example 32, 7-(2-(5-chloro-2-fluorophenyl)pyridin-4-ylamino)-N-methyl-1H-pyrazolo[4,3-b]pyridine-1-carboxamide] | 50.1 | 50.1
Cc1ccc(F)c(-c2cc(Nc3ccnc4cnn(C5CCN(S(C)(=O)=O)CC5)c34)ccn2)c1 [Example 78, N-(2-(2-fluoro-5-methylphenyl)pyridin-4-yl)-1-(1-(methylsulfonyl)piperidin-4-yl)-1H-pyrazolo[4,3-b]pyridin-7-amine] | 631 | –
CCNC(=O)n1ncc2nccc(Nc3ccnc(-c4cc(C)ccc4F)c3)c21 [Example 80, N-ethyl-7-(2-(2-fluoro-5-methylphenyl)pyridin-4-ylamino)-1H-pyrazolo[4,3-b]pyridine-1-carboxamide] | 31.6 | –
Cc1ccc(F)c(-c2cc(Nc3ccnc4cn(CC(N)=O)nc34)ccn2)n1 [Example 84, 2-(7-(3′-fluoro-6′-methyl-2,2′-bipyridin-4-ylamino)-2H-pyrazolo[4,3-b]pyridin-2-yl)acetamide] | 31.6 | –
Cc1ccc(F)c(-c2cc(Nc3ccnc4cnn(CC(N)=O)c34)ccn2)n1 [Example 85, 2-(7-(3′-fluoro-6′-methyl-2,2′-bipyridin-4-ylamino)-1H-pyrazolo[4,3-b]pyridin-1-yl)acetamide] | 25.1 | –

Results, then the molecule that gave them:

IC50 (TGF-β R1 ALK5) [nM] | IC50 (cellular TGF-β R1 ALK5) [nM] | SMILES
15.8 | 200 | Cc1ccc(F)c(-c2cc(Nc3ccnc4cn(C[C@H](O)CO)nc34)c(C)cn2)n1 [Example 7, (S)-3-(7-(3′-fluoro-5,6′-dimethyl-2,2′-bipyridin-4-ylamino)-2H-pyrazolo[4,3-b]pyridin-2-yl)propane-1,2-diol]
10 | 20 | Cc1ccc(F)c(-c2cc(Nc3ccnc4cnn(CCO)c34)c(C)cn2)n1 [Example 10, 2-(7-(3′-fluoro-5,6′-dimethyl-2,2′-bipyridin-4-ylamino)-1H-pyrazolo[4,3-b]pyridin-1-yl)ethanol]
31.6 | 501 | COCCn1cc2ncc(F)c(Nc3cc(-c4cc(Cl)ccc4F)ncc3C)c2n1 [Example 16, N-(2-(5-chloro-2-fluorophenyl)-5-methylpyridin-4-yl)-6-fluoro-2-(2-methoxyethyl)-2H-pyrazolo[4,3-b]pyridin-7-amine]
50.1 | 631 | CCCn1ncc2nccc(Nc3ccnc(-c4cc(Cl)ccc4F)c3)c21 [Example 18, N-(2-(5-chloro-2-fluorophenyl)pyridin-4-yl)-1-propyl-1H-pyrazolo[4,3-b]pyridin-7-amine]
50.1 | 398 | CCCn1cc2nccc(Nc3ccnc(-c4cc(Cl)ccc4F)c3)c2n1 [Example 19, N-(2-(5-chloro-2-fluorophenyl)pyridin-4-yl)-2-propyl-2H-pyrazolo[4,3-b]pyridin-7-amine]
39.8 | 100 | CC(C)n1ncc2nccc(Nc3ccnc(-c4cc(Cl)ccc4F)c3)c21 [Example 20, N-(2-(5-chloro-2-fluorophenyl)pyridin-4-yl)-1-isopropyl-1H-pyrazolo[4,3-b]pyridin-7-amine]
63.1 | 1000 | Fc1ccc(Cl)cc1-c1cc(Nc2ccnc3cn(CC4CCNCC4)nc23)ccn1 [Example 27, N-(2-(5-chloro-2-fluorophenyl)pyridin-4-yl)-2-(piperidin-4-ylmethyl)-2H-pyrazolo[4,3-b]pyridin-7-amine]
2510 | 2510 | CCNC(=O)N1CCC(Cn2cc3nccc(Nc4ccnc(-c5cc(Cl)ccc5F)c4)c3n2)CC1 [Example 28, 4-((7-(2-(5-chloro-2-fluorophenyl)pyridin-4-ylamino)-2H-pyrazolo[4,3-b]pyridin-2-yl)methyl)-N-ethylpiperidine-1-carboxamide]
– | 398 | OC[C@@H](O)Cn1cc2nccc(Nc3ccnc(-c4cc(Cl)ccc4F)c3)c2n1 [Example 47, (S)-3-(7-(2-(5-chloro-2-fluorophenyl)pyridin-4-ylamino)-2H-pyrazolo[4,3-b]pyridin-2-yl)propane-1,2-diol]
39.8 | – | CNC(=O)Cn1ncc2nccc(Nc3cc(-c4cc(F)ccc4F)ncc3C)c21 [Example 159, 2-(7-(2-(2,5-difluorophenyl)-5-methylpyridin-4-ylamino)-1H-pyrazolo[4,3-b]pyridin-1-yl)-N-methylacetamide]

Reference: US9073918B2, “Pyrazolo[4,3-b]pyridine-7-amine inhibitors of ALK5” (Takeda Pharmaceutical Company Limited, priority 2010, dated 2015)
